Data on four compounds can be found in patent EP4778511A1, “PHARMACEUTICAL COMPOSITION, DRUG-LOADED ROD CORE, IMPLANT, PREPARATION METHOD THEREFOR, AND USE THEREOF” (SHENYANG XINGHUA PHARMACEUTICAL TECHNOLOGY CO., LTD, priority 2023, dated 2025).

Like-named read-outs stand apart in the source and are kept apart here.

For data set [1] the following is noted: reagent table, cited from earlier work.
Data set [2] can be described thus: Average particle size and PDI of paliperidone after wet grinding (nanonization). The class given is physicochemical. The procedure:
Active pharmaceutical ingredient: stabilizer = 5:1. The ball mill speed was 400 r·min^-1, the grinding media was 0.2 mm of zirconia beads with a volume of 20 mL, and the grinding time was 50 min. The effects of stabilizer types Poloxamer 188 (P188), Tween 80, Poloxamer 407 (P407), SDS, HPMC on the average particle size and PDI (PDI is a dimensionless value reflecting the width of particle size distribution, ranging from 0 to 1, a smaller value indicates a more uniform and narrower particle size distribution) of the active pharmaceutical ingredient after grinding are investigated. Table 29 Effects of different stabilizers on average particle size and PDI
Active pharmaceutical ingredient: stabilizer = 5:1. The ball mill speed was 400 r·min^-1, Poloxamer 188 was used as the stabilizer, the grinding media was 20 mL, and the grinding time was 50 min. The effects of 0.1 mm, 0.2 mm, and 0.3 mm zirconia beads on the average particle size and PDI of the active pharmaceutical ingredient after grinding were investigated. Table 30 Effects of different types of grinding media on average particle size and PDI
Active pharmaceutical ingredient: stabilizer = 5:1. The ball mill speed was 400 r·min^-1, Poloxamer 188 was used as the stabilizer, the grinding media was 0.1 mm zirconia beads. The effects of grinding time for 15 min, 25 min, 35 min, 45 min, 50 min, 60 min on the average particle size and PDI of the active pharmaceutical ingredient after grinding were investigated. Table 31 Effects of different grinding time on average particle size and PDI

[3] abbreviates: stabilizer HPMC, 0.2 mm zirconia beads, grinding 50 min.
Where [4] appears, read: stabilizer P188, 0.1 mm zirconia beads, grinding 15 min.
[5] abbreviates: stabilizer P188, 0.1 mm zirconia beads, grinding 25 min.
[6] abbreviates: stabilizer P188, 0.1 mm zirconia beads, grinding 35 min.
[7] abbreviates: stabilizer P188, 0.1 mm zirconia beads, grinding 45 min.
Setting [8] is: stabilizer P188, 0.1 mm zirconia beads, grinding 50 min.
Where [9] appears, read: stabilizer P188, 0.1 mm zirconia beads, grinding 60 min.
Setting [10] is: stabilizer P188, 0.2 mm zirconia beads, grinding 50 min.
The mark [11] stands for this setting: stabilizer P188, 0.3 mm zirconia beads, grinding 50 min.
[12] abbreviates: stabilizer P407, 0.2 mm zirconia beads, grinding 50 min.
Where [13] appears, read: stabilizer SDS, 0.2 mm zirconia beads, grinding 50 min.
Where [14] appears, read: stabilizer Tween, 0.2 mm zirconia beads, grinding 50 min.

`N[C@@H](Cc1cc(I)c(Oc2cc(I)c(O)c(I)c2)c(I)c1)C(=O)O` [levothyroxine sodium]: the solubility entry in data set [1] was “levothyroxine sodium (purity 99%), molecular weight: 800.87, solubility: 150 µg/ml”.
As for `Cc1nc2n(c(=O)c1CCN1CCC(c3noc4cc(F)ccc34)CC1)CCCC2O` (stereo not shown) [Paliperidone], the Average particle size was determined as 330 nm in data set [2] (setting [3]); 820 nm in data set [2] (setting [4]); 646 nm in data set [2] (setting [5]); 430 nm in data set [2] (setting [6]); 246 nm in data set [2] (setting [7]); 220 nm in data set [2] (setting [8]). Also, the Average particle size in data set [2] (setting [9]) amounted to 253 nm; in data set [2] (setting [10]) it was 240 nm; in data set [2] (setting [11]), 420 nm; in data set [2] (setting [12]), 417 nm; in data set [2] (setting [13]) it was 320 nm; in data set [2] (setting [14]), 250 nm. The PDI is recorded as 0.18 in data set [2] (setting [3]); 0.13 in data set [2] (setting [4]); 0.14 in data set [2] (setting [5]); 0.09 in data set [2] (setting [6]); 0.08 in data set [2] (setting [7]); 0.06 in data set [2] (setting [8]). The PDI stood at 0.12 in data set [2] (setting [9]); 0.15 in data set [2] (setting [10]); 0.25 in data set [2] (setting [11]); 0.26 in data set [2] (setting [12]); 0.21 in data set [2] (setting [13]); 0.07 in data set [2] (setting [14]). Moreover, the solubility entry in data set [1] is reported as “Paliperidone (purity 98%), molecular weight: 426.48, solubility: 30 µg/ml”.
On to `CC(=O)O[C@H]1C(=O)[C@@]2(C)[C@H]([C@H](OC(=O)c3ccccc3)[C@]3(O)C[C@H](OC(=O)[C@H](O)[C@@H](NC(=O)c4ccccc4)c4ccccc4)C(C)=C1C3(C)C)[C@]1(OC(C)=O)CO[C@@H]1C[C@@H]2O` [Paclitaxel], for which the solubility result in data set [1] (in water) is on record as “Paclitaxel (purity 99%), molecular weight: 853.92, insoluble in water”.
In the case of `C#C[C@]1(O)C=C[C@H]2[C@@H]3CCC4=CC(=O)CC[C@@H]4[C@H]3CC[C@@]21CC` [Gestodene], in data set [1] (in water), the solubility result was “Gestodene (purity 98%), molecular weight: 310.43, insoluble in water”.
